Source: patent US20150051283A1, “COMPOSITION AND METHOD FOR INHIBITION OF PKNG FROM MYCOBACTERIUM TUBERCULOSIS” (priority 2013, published 2015)

Assays:
[1] = molecular target: Xanthine oxidoreductase (XOR) (Homo sapiens, UniProt P47989); details: reference [15]; cited from earlier work
[2] = molecular target: T1, rabbit muscle GAPDH (Oryctolagus cuniculus, UniProt P46406); experiment: Reversibility of GAPDH inhibition by DTT (positive control); format: biochemical; details: OA-NO2-inhibited GAPDH
T1 construct: rabbit muscle GAPDH as model protein; from tissue; host or cells: rabbit muscle
Procedure: FIG. 11A: PknG was inhibited by incubation with OA-NO2 (50 μM) in 70 mM ammonium bicarbonate, pH 8.0 at 25° C. for 10 min, as previously. Kinase activity of PknG inhibited by OA-NO2 was measured (PknG+OA-NO2). Subsequently, nitroalkylated samples were treated with DTT (42 mM) or GSH (24 mM) for 15 min at 25° C. and kinase activity was re-measured (PknG+OA-NO2+RSH). Activity recovery was expressed as a ratio between [activity of PknG+OA-NO2+RSH]/[activity PknG+OA-NO2] where 1 means no activity recovery after thiol-containing agent treatment. GAPDH was used as a positive control: after DTT treatment 90% of the initial activity was recovered representing a 12 fold increase in the enzyme activity after the RSH treatment. […] Three independent experiments were performed FIG. 11B: MALDI-TOF mass spectrum of peptides generated by tryptic digestion of PknG. Upper panel: untreated PknG, middle panel: PknG exposed to OA-NO2 and lower panel: idem middle panel+42 mM DTT. In each panel the native or nitroalkylated form of the peptide with the sequence 122-154 that includes the Rbx-Cys 128 and 131, are shown. […]
We have previously reported that nitrated fatty acids are capable to inhibit GAPDH activity by modification of nucleophilic amino acid residues in a thiol-reversible manner. […] PknG control activity was measured in the presence of the thiol-containing reagents. […]

[3] = molecular target: PknGΔ74/TPR (Mycobacterium tuberculosis, UniProt P9WI73); format: biochemical
PknGΔ74/TPR, sequence (P9WI73 whole entry, looked up, stated change not applied): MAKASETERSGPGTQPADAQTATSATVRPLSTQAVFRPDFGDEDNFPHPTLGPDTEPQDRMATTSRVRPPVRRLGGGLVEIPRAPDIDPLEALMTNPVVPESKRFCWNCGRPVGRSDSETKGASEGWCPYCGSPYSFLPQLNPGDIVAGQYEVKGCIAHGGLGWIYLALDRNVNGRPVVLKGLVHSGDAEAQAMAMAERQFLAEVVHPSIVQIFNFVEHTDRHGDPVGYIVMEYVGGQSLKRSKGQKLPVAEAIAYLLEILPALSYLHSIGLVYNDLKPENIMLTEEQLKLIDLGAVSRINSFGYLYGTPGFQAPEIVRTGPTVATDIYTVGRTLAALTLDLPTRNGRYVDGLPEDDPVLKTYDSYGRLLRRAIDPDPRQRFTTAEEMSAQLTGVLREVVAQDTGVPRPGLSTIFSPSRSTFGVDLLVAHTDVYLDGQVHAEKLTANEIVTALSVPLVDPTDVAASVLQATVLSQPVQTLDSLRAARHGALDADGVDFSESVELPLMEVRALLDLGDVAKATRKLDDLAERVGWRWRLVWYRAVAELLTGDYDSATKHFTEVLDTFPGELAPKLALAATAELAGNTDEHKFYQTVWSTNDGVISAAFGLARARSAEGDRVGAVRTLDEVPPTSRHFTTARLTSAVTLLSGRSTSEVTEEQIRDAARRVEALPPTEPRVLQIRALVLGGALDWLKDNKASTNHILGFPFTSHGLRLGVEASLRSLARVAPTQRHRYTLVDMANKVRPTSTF

T1 sequence (P46406 whole entry): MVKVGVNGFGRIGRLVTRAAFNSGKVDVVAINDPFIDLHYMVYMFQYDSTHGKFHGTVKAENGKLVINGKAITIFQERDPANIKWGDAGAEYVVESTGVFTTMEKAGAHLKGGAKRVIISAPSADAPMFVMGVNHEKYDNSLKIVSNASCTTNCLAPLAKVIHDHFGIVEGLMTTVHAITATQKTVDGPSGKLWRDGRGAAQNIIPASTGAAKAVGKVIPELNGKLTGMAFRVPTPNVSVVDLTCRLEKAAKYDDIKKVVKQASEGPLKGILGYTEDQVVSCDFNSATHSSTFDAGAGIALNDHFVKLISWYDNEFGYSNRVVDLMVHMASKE
Xanthine oxidoreductase (XOR), sequence (P47989 whole entry): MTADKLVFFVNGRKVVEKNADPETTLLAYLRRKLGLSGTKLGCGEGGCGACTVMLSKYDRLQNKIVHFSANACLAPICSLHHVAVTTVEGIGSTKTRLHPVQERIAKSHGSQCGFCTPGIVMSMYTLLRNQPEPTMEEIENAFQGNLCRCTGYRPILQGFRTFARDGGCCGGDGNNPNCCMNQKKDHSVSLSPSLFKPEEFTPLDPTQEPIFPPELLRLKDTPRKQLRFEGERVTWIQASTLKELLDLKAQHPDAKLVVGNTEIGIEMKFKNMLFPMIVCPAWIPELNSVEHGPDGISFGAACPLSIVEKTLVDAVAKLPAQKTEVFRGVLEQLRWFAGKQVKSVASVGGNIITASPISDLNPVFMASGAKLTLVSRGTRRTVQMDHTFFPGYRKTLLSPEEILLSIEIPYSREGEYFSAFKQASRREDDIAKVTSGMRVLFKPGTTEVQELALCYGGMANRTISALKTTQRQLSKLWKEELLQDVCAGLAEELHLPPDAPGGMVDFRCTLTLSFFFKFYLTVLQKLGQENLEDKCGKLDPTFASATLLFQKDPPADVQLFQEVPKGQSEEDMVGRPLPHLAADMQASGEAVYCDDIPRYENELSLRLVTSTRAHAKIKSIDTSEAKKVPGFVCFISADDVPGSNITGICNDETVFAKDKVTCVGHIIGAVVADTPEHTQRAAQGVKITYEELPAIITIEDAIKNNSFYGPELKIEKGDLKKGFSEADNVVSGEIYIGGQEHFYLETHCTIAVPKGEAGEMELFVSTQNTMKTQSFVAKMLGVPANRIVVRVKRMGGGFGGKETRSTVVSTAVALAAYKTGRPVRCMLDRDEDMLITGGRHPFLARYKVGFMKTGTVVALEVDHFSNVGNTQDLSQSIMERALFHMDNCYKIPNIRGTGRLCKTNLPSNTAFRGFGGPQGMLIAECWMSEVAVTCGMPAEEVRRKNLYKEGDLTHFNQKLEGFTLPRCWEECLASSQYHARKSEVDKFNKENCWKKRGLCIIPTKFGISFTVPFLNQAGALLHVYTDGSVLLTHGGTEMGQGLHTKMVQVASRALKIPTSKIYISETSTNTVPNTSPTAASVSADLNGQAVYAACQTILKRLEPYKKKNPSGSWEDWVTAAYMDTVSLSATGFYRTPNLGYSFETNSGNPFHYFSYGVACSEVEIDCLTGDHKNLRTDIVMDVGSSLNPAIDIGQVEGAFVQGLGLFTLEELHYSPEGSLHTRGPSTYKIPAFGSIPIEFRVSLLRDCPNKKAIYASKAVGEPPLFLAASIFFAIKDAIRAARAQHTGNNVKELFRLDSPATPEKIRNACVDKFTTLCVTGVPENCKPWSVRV

Substance: 9- and 10-nitro-octadeca-9-cis-enoic acid [OA-NO2]
- XOR inhibition, reversibility [1]: not reversed by thiol reagents
- increase in GAPDH activity after RSH treatment [2]: 12 fold
- initial GAPDH activity recovered after DTT treatment [2]: 90%
- enzyme inhibition of PknGΔ74/TPR [3]: fully inhibited
